Results from US6727264B1 (Synaptic Pharmaceutical Corporation, priority 2001, dated 2004).

Target: rat MCH-1 (Rattus norvegicus, UniProt P97639)
Test: Radioligand binding assay at cloned rat MCH1 receptor ([3H] Compound A)
Parameters: host or cells: Peak rapid 293 (Peakr293) cells, transient calcium phosphate transfection, membranes
Conditions: cloned rat MCH1 receptor, membranes from Peakr293 cells, 0.08 nM [3H] Compound A; read-out: Ki (nM) rMCH1

Sequence of rat MCH-1 (P97639 whole entry): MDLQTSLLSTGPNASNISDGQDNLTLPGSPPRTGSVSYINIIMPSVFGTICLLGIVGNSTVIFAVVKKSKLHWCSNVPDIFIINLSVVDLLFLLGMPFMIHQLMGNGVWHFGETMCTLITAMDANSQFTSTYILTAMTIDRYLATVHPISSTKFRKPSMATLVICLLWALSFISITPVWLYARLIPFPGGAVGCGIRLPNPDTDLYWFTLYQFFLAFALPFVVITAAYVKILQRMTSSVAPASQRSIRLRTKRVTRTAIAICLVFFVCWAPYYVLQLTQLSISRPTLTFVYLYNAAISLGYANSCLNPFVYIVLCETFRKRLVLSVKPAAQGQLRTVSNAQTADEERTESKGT

SMILES	Ki [nM]
CC(=O)c1cccc(O[C@@H](CCN2CCC(c3cc(NC(=O)C(C)C)ccc3C)CC2)c2ccccc2)c1 [Example 187]	15.6
Cc1ccc(C(=O)CCCN2CCC(c3cccc(NC(=O)C(C)C)n3)CC2)cc1C [Example 264]	54.7
CC(C)C(=O)Nc1cccc(C2CCN(CCCCCCC(O)c3ccccc3)CC2)c1 (centres unmarked) [Example 282]	23.5
CC(C)C(=O)Nc1ccc(OC(F)(F)F)cc1C1CCN(CCCC(c2ccc(F)cc2)c2ccc(F)cc2)CC1 [Example 277]	118
CC(C)C(=O)Nc1cccc(C2CCN(CCCC(O)c3ccccc3)CC2)c1 (centres unmarked) [Example 279]	74.5
Cc1onc(-c2c(F)cccc2Cl)c1C(=O)NCCCN1CCC(c2cccc(NC(=O)C(C)C)c2)CC1 [Example 328]	47.6
Cc1cccc(-n2ccc3cc(CN4CCC(c5cccc(NC(=O)C(C)C)c5)CC4)ccc32)c1 [Example 103]	21.3
Cc1onc(-c2ccccc2)c1C(=O)NCCCN1CCC(c2cccc(NC(=O)C(C)C)c2)CC1 [Example 325]	29.8
CC(C)C(=O)Nc1cccc(C2CCN(C[C@@H](C)COc3cccc(F)c3)CC2)c1 [Example 366]	646
COc1ccc(C(CCN2CCC(c3cccc(NC(=O)C(C)C)c3)CC2)Oc2ccc(F)cc2)cc1 (centres unmarked) [Example 184]	105
CC(C)C(=O)Nc1cccc(C2CCN(CCC(Oc3ccc(Cl)cc3)c3ccc(F)cc3)CC2)c1 (centres unmarked) [Example 131]	11.9
CC(C)C(=O)Nc1cccc(C2CCN(CCCNS(=O)(=O)c3ccc(Cl)c([N+](=O)[O-])c3)CC2)c1 [Example 104]	11.2
COc1ccc(Oc2ccc(CN3CCC(c4cccc(NC(=O)C(C)C)c4)CC3)cc2)cc1 [Example 196]	35.2
CC(=O)c1cccc(OC(CCN2CCC(c3cccc(NC(=O)C(C)C)c3)CC2)c2ccc(Cl)cc2)c1 (centres unmarked) [Example 166]	7.7
CC(C)C(=O)Nc1cccc(C2CCN(Cc3ccc(Oc4ccccc4)cc3)CC2)c1 [Example 259]	15.4
CC(C)C(=O)Nc1cccc(C2CCN(CCC(Oc3ccc(Cl)cc3)c3ccc(Br)cc3)CC2)c1 (centres unmarked) [Example 159]	4.5
CC(C)C(=O)Nc1cccc(C2CCN(CCC(Oc3ccc(F)cc3F)c3ccc(F)cc3)CC2)c1 (centres unmarked) [Example 146]	19.2
CC(C)C(=O)Nc1cccc(C2CCN(CCC(Oc3ccccc3)c3ccc(F)cc3)CC2)c1 (centres unmarked) [Example 174]	17

Same assay, conditions: cloned rat MCH1 receptor; 0.08 nM [3H] Compound A; Peakr293 cell membranes; read-out: Ki (nM) rMCH1

SMILES	Ki [nM]
CC(C)C(=O)Nc1cccc(C2CCN(Cc3c[nH]c4cccc(Br)c34)CC2)c1 [Example 431]	968
CC(C)C(=O)Nc1cccc(C2CCN(CCCCC(Oc3cc(C(F)(F)F)ccc3F)c3ccc(C(F)(F)F)cc3)CC2)c1 (centres unmarked) [Example 929]	29.9
CC(C)C(=O)Nc1cccc(C2CCN(Cc3cn(-c4ccccc4)c4cc(OCc5ccccc5)ccc34)CC2)c1 [Example 504]	22.5
CC(C)C(=O)Nc1cccc(C2CCN(CCCCNC(=O)c3ccc(F)c(F)c3)CC2)c1 [Example 658]	12
CC(C)C(=O)Nc1cccc(C2CCN(CCCCC(Oc3ccc(F)cc3)c3ccc(Cl)cc3)CC2)c1 (centres unmarked) [Example 923]	1.3
CCC(=O)Nc1cccc(C2CCN(Cc3cn(-c4ccccc4F)c4cc(Cl)ccc34)CC2)c1 [Example 472]	12.2
COc1ccc2[nH]c(-c3cccc(Cl)c3)c(CCCN3CCC(c4cccc(NC(=O)C(C)C)c4)CC3)c2c1 [Example 726]	5
Cc1ccccc1NC(=S)NCCCN1CCC(c2cccc(NC(=O)C(C)C)c2)CC1 [Example 615]	210
CCC(=O)Nc1cccc(C2CCN(CCCC(=O)c3ccc(F)cc3)CC2)c1 [Example 535]	28.1
CC(C)C(=O)Nc1cccc(C2CCN(CC[C@H](NC(=O)Nc3ccc(Oc4ccccc4)cc3)c3ccccc3)CC2)c1 [Example 604]	36.8
CC(C)C(=O)Nc1cccc(C2CCN(CCCc3c(-c4ccc(Cl)cc4)n(C)c4ccccc34)CC2)c1 [Example 691]	16.3
CCCC(=O)Nc1ccc(C2CCN(CCCCn3ccc4ccccc43)CC2)cc1 [Example 840]	663
CC(C)C(=O)Nc1cccc(C2CCN(CCCCC(Oc3ccc(F)cc3)c3ccccc3)CC2)c1 (centres unmarked) [Example 940]	1.8
CC(C)C(=O)Nc1cccc(C2CCN(Cc3c[nH]c4c(-c5cccc([N+](=O)[O-])c5)cccc34)CC2)c1 [Example 521]	27
CCC(=O)Nc1cccc(C2CCN(CCCC(=O)c3ccc(Cl)cc3)CC2)c1 [Example 532]	8.7
CC(C)C(=O)Nc1cccc(C2CCN(CC[C@H](NS(C)(=O)=O)c3ccccc3)CC2)c1 [Example 597]	223
Cc1noc(C)c1S(=O)(=O)NCCCN1CCC(c2cccc(NC(=O)C(C)C)c2)CC1 [Example 644]	196
Cc1ccc(-n2ccc3c(CN4CCC(c5cccc(NC(=O)C(C)C)c5)CC4)cccc32)cc1C [Example 862]	438

SMILES	Ki [nM]
O=C(CCCCN1CCC(c2cccc(NC(=O)C3CC3)c2)CC1)c1cccc(F)c1 [Example 549]	39.7
CC(=O)c1ccc(OC(CCCCCN2CCC(c3cccc(NC(=O)C(C)C)c3)CC2)c2ccccc2F)cc1 (centres unmarked) [Example 893]	23
Cc1cccc2c(CCCN3CCC(c4cccc(NC(=O)C(C)C)c4)CC3)c(-c3cccc(Cl)c3)[nH]c12 [Example 722]	6.4
CC(C)(C)c1ccc(C(=O)CCCN2CCC(c3cccc(NC(=O)C4CC4)c3)CC2)cc1 [Example 541]	319
CC(C)C(=O)Nc1cccc(C2CCN(Cc3ccc4c(ccn4-c4cccc5ccccc45)c3)CC2)c1 [Example 853]	48
CC(C)C(=O)Nc1cccc(C2CCN(CCCc3c(-c4ccc(Cl)cc4)[nH]c4c3ccc3ccccc34)CC2)c1 [Example 707]	19.6
CC(C)C(=O)Nc1cccc(C2CCN(CCCCCCNC(=O)Nc3ccc(-c4ccccc4)cc3)CC2)c1 [Example 635]	73.6
CC(C)C(=O)Nc1cccc(C2CCN(CCCc3c(-c4ccccc4Cl)[nH]c4ccccc34)CC2)c1 [Example 730]	0.9
Cc1ccc2c(CN3CCC(c4cccc(NC(=O)C(C)C)c4)CC3)c[nH]c2c1 [Example 495]	95.1
CC(C)C(=O)Nc1cccc(C2CCN(CCCc3c(-c4cccc(F)c4)[nH]c4c3ccc3ccccc34)CC2)c1 [Example 699]	5.4
Cc1cccc2c(CCCN3CCC(c4cccc(NC(=O)C(C)C)c4)CC3)c[nH]c12 [Example 417]	20.5
CCOC(=O)c1[nH]c2ccc(OC)cc2c1CN1CCC(c2cccc(NC(=O)C(C)C)c2)CC1 [Example 453, ETHYL 3-({4-[3-(ISOBUTYRYLAMINO)PHENYL]-1-PIPERIDINYL}METHYL)-5-METHOXY-1H-INDOLE-2-CARBOXYLATE]	195
CC(C)C(=O)Nc1cccc(C2CCN(CCCc3c(-c4ccc(F)cc4)[nH]c4ccc(OC(F)(F)F)cc34)CC2)c1 [Example 715]	4.2
CC(C)C(=O)Nc1cccc(C2CCN(CCCc3c(-c4ccc(F)cc4)[nH]c4ccccc34)CC2)c1 [Example 717]	1.3
CSc1ccccc1NC(=O)N[C@@H](CCN1CCC(c2cccc(NC(=O)C(C)C)c2)CC1)c1ccccc1 [Example 612]	121
CC(C)C(=O)Nc1cccc(C2CCN(CCCCCCNC(=O)C(c3ccccc3)c3ccccc3)CC2)c1 [Example 625]	29.5
Cc1cccc2c(CCCN3CCC(c4cccc(NC(=O)C(C)C)c4)CC3)c(-c3ccc(Cl)cc3)[nH]c12 [Example 719]	14.9
